Here are results for one molecule from patent publication US20230277669A1, “USES OF UROLITHINS” (Amazentis SA, priority 2022, published 2023).

The test system of one test is Pgam5^-/- CD8^+ T cells. In words: In vitro stimulation of PGAM5-/- CD8+ cells in presence of UA. Format: cell-based, PGAM5^-/- mice. The procedure:
(FIG. 5H) Immunofluorescence of PGAM5 (green) in CD3+ cells after in vitro stimulation with aCD3/aCD28 stimulation beads for six hours. Cells were stained with Mitotracker Red to display mitochondrial colocalisation in the DMSO control as opposed to cytosolic release in the UA sample (m, mitochondrial co-localization; c, cytoplasmic localization) Scale=5 um. (FIG. 5I) In vitro stimulation of PGAM5^-/- CD8+ cells: Percentage of TSCM after 48 h of stimulation with aCD3/aCD28 stimulation beads in the presence of UA. All data depicts mean ± SD, n=4 per group. Statistics shown here depict unpaired, two-sided t-test and Mann-Whitney test (I; (DMSO vs UA25; DMSO vs UA50). *p < 0.05; n.s. not significant. (FIG. 5J) Percentage of CD95+ er 48 h of stimulation with aCD3/aCD28 stimulation beads in the presence of UA. (FIG. 5K) CD95+er 48 h of stimulation with aCD3/aCD28 stimulation beads in the presence of UA.
(FIG. 5L) UA induces PGC-1α expression in stimulated CD8+ cells. PGC-1α MFI at 48 h upon stimulation, as assessed by intracellular staining, is shown (n=3). One of two independent experiments are shown. Data are mean ± SD, statistical analysis was performed by two-sided t-test (p**<0.01). (FIG. 5M) Mitochondrial content of TIL CD8+ cells harvested from APTK-carrying mice, fed UA or control diet as depicted in FIG. 1J. Assessed by Mitotracker Red staining. Data are mean ± SD, *p < 0.05 by two-sided t-test. (FIG. 5N) Mitophagy and subsequent PGAM5 release drive PGC-1α upregulation. PGC-1α expression of CD8+ cells derived from Pink1^-/- KO mice upon 48 h stimulation in vitro in the presence of UA or DMSO control (n=4). Data are mean ± SD, statistical analysis was performed by two-sided t-test. Depicts one of two independent experiments. (FIG. 5O) Mitophagy and subsequent PGAM5 release drive PGC-1 α upregulation. PGC-1α expression of CD8+ cells derived from PGAM5^-^/- mice upon 48 h stimulation in vitro in the presence of UA or DMSO control (n=4). Data are mean ± SD, statistical analysis was performed by two-sided t-test. […] Cells were co-treated with DMSO, UA and an inhibitor of PGC-1α (PGC-1αi) as indicated (n=4). One of two independent experiments are shown. Data are mean ± SD, statistical analysis was performed by two-sided t-test (p**<0.01; ***p <0.001; n.s. not significant).(FIG. 5Q) Urolithin A induces TSCM in human CD8+ cells: Schematic overview. PBMC were isolated from healthy donors, prior to T cell purification and in vitro stimulation via aCD3/aCD28 stimulation beads at the presence of UA or DMSO control. (FIG. 5R) Quantification of human TSCM (n=4). Representative data of one out of five donors with the same result are shown. (FIG. 5S) Quantification of TMRM^loCD8+ human cells 48 h after activation in the presence of UA or DMSO control (n=4). (FIG. 5T) TCF1 expression in human CD8 cells as assessed by flow cytometry (n=4). All data are mean ± SD; statistical analysis was performed by two-sided t-test (*p < 0.05; p**<0.01; p****0.0001).
(FIG. 8B) qPCR analysis of selected Wnt target genes 24 h after stimulation (n=4). Data are mean ± SEM, statistical analysis was performed by two-sided t-test (* p<0.05, ** p<0.01, *** p<0.001). (FIG. 8C) CD8+ cells from PGAM5^-/- mice display an adequate mitophagy response upon UA treatment: Flow cytometry analysis of lysosome formation after six hours of in vitro stimulation via aCD3/aCD28 stimulation beads (n=4). (FIG. 8D) CD8+ cells from PGAM5^-/- mice display an adequate mitophagy response upon UA treatment: Mitotracker Red signal after 24 h in PGAM5^-/- CD8+ stimulated in vitro at the presence of UA or vehicle control. Congruent histograms are shown. Data are mean ± SD, statistical analysis was performed by two-sided t-test (* p<0.05, ** p<0.01, *** p<0.001). (FIG. 8E) Cytosolic fractionation Western blot of Pink1^-/- CD3+ cells 6 h after stimulation with plate-bound aCD3/aC28 antibodies in the presence of Urolithin A or DMSO control. […]

In the next test the test system is C.elegans. Conditions: in vivo; cited from earlier work.

`O=c1oc2cc(O)ccc2c2ccc(O)cc12` [Urolithin A]: the “mitochondrial content (Mitotracker Red)” value with Pgam5^-/- CD8^+ T cells (24 h) was “reduced mitochondrial content”. Further, in the test on Pgam5^-/- CD8^+ T cells (48 h), the PGC-1α expression entry is “failed to enhance”, the TCF1 entry was “failed to upregulate”, the “UA-dependent expansion of CD44-CD62L+Sca1hi TSCM cells” value was “blocked the UA-dependent expansion” and the “memory marker CD95” value was “failed to upregulate”. Also, the lysosome formation entry in the test on Pgam5^-/- CD8^+ T cells (six hours) is reported as “still enhanced lysosome formation”. Moreover, in the test on C.elegans, the lifespan entry is “prolonged lifespan” and the mitochondrial content entry is listed as “higher mitochondrial content”.
